Measurements from patent US10952940B2, “Reagents and methods for mineralization of tooth enamel” (UNIVERSITY OF WASHINGTON, priority 2016, dated 2021).

Legend:
Set-up in all cases: species or system human
[1] = Remineralization of artificial white spot lesions, SEM and EDXS analyses of new mineral layer; settings: for thickness of newly formed mineral layer: SEM of cross-sectioned samples, 1 hour treatment
Source text: Extracted teeth with no visible white spot lesions, caries, or any other kind of restorations were collected from dental clinics around the King County area (WA, USA) and disinfected in 10% aqueous bleach solutions. Prior to the experiments, the teeth were cleaned to remove visible blood, gross debris and soft connective tissue using a dental scaler under a light microscope.
Enamel was demineralized to create artificial lesions to mimic white spot lesions and/or incipient caries. The teeth were covered by lacquer leaving a 4-mm wide square window in the enamel close to cemento-enamel junction. The exposed areas of 4×4 mm enamel were treated with a cocktail of acetic acid/CaCl2/KH2PO4 for 2 weeks to establish up to 200 μm deep artificially created non-cavitated white spot lesions (WSL). Samples were then divided into control and test groups. Test groups were treated either with peptide, fluoride, or combination of both (Table 5).
Prior to remineralization, samples requiring peptide treatments (Groups 5 & 6) were incubated in 50 μL of 0.8 mM peptide dissolved in 50 mM Tris Buffer Solution (TBS) (pH:7.4) for 10 minutes at 37° C. Next, treatment samples were exposed to 50 mM TBS containing Ca^2+/PO4^3− (Groups 2, 5) or Ca^2+/PO4^3−/F^− (Groups 3, 4, 6) at concentrations as listed in Table 5 for 1 hour at 37° C., then rinsed with de-ionized (DI) water, dried by forced air and stored at room temperature until characterization.
After re-mineralization experiments were completed, secondary electron imaging (SEI) in the scanning electron microscope (SEM) was used to characterize the surface morphology and to show the thickness of newly formed mineral layer in cross-sections where applicable. Specimen preparation for SEM involved cutting a notch on the back side using a low speed saw (IsoMet™, Buehler, Lake Bluff, Ill., USA) before they were subjected to WSL formation and remineralization as described above. After remineralization step was completed, specimens were rinsed with DI water, air dried gently (<5 PSI), then carefully fractured into 2 pieces along the notch. One of the fractured pieces was mounted on a SEM stub with the mineralizing surface facing up for imaging the surface morphology and second piece was mounted with the cross-section facing up to show the thickness of mineral layer. Mounted specimens were then stored in vacuum for at least 2 hours to remove residual moisture which were then sputter coated with 5-nm thick platinum (SPI-Sputter Module Coater, SPI Supplies, West Chester, Pa., USA). SEM characterization was performed using an FEI Sirion microscope (Sirion, FEI, Hillboro, Oreg., USA) operating at 10 kV acceleration voltage. The chemical composition was measured by an onboard energy dispersive X-ray spectroscopy (EDXS) system (X-Max^N Si drift detector with AZtecEnergy software package, Oxford Instruments, Abingdon, Oxfordshire, UK). The measurements for each group were pooled from 5 specimens per group. The average values and standard deviations were calculated and expressed as the mean±standard error.

[2] = Vicker's microhardness of mineralized tooth surface; settings: 10 kg applied load, on the surface, n ≥ 20
Description: In addition to nanoindenation measurements, microhardness was also performed on the surface to quantitatively assess the mechanical properties of the mineral layers with larger areas and volumes including the underlying enamel as a composite. Vicker's microhardness was performed on at room temperature using Vicker's indenter on a Wilson Hardness Tukon 1202 microhardness tester at 10 kg applied load (Illinois Tool Works, Lake Bluff, Ill.). At least 20 measurements per group were recorded for obtaining an average and statistical analysis.
Microhardness and nanoindentation differ in both loading range and measurement method as shown in the schematic in FIG. 14 and, for these reasons, both were used in the present work to assess the mechanical durability of the remineralized layers on artificially formed lesions on intact human teeth. In the case of microhardness (Vickers indenter), the measurement was a static one in that the load was applied, released and hardness was obtained by measuring the post-indentation projected area of the indented region (foot print). This method therefore provides information about only the plastically deformed response (plastic deformation) of the material. Furthermore the load applied in this study was 10 kg, lowest allowable by the instrument.

[3] = Nanoindentation of mineralized layers in cross-section
Source text: Similar to SEM specimen preparation, tooth samples were notched from the back of tooth before remineralization, then fractured along the notch. The specimens were then mounted in a room temperature-cure epoxy, and the cross-section of the fracture was polished to 0.1 μm finish using diamond lapping films (Allied High Tech Products Inc., Rancho Dominguez, Calif., USA). Nanoindentation measurements were made using a Triboindentor nanoindentation system (Hysitron Inc., Minneapolis, Minn., USA) in air. Hardness (H) and elastic modulus (Er) were determined by the software accompanying the nanoindentation unit.^40-42 In order to obtain the values that were not indentation volume dependent, maximum indentation depth for all measurements kept at 120±10 nm. All reported H and Er values were averaged over 20 measurements.
Nanoindentation, on the other hand, can handle a much smaller applied load, e.g., in the range of 700 to 800 μN; this range of loads to maintain a nominal total indentation depth of approximately 100 nm (<1 μm in indentation width) reasonable depth for both the WSL and mineralized layer regions. The method provides a dynamic measurement with the indentation system tracking continuously load vs. depth during the indentation process providing a Force-to-depth (F-d) profile of the mechanical response of the sample, including biological hard tissues such as enamel, dentin, and bone. The hardness and elastic modulus were extracted from the linear extrapolation of the unloading curve (see FIG. 14b). Hardness obtained by this method contains partial elastic deformation as well as plastic deformation. With small indentation depth and footprint, indentation characterization of the mineral layer only was possible in cross-section for the group 6 samples where mineral layers were more than 5 μm thick. All other treatment groups, reliable nanoindentation characterization of the layers […] because of the thin, and in some cases, discontinuous natural of the layers. It should also be noted that the nanomechanical properties of the artificially created lesion were also determined, with values similar to those of the mineralized layers. Regardless, the complete nanoindentation values are tabulated in Table 10 where each value represents more than 20 measurements per sample.

[4] = EDXS, 1 hour treatment at 37° C.
[5] = mineralized layer, n ≥ 20, listed as Group 6 (shADP5)
[6] = mineralized layer, n ≥ 20, listed as group 6
[7] = underlying enamel of Group 6 samples

## SYENSHSQAINVDRT [shADP5, 15-amino acid long amelogenin-derived peptide, shortened human ADP5]
[1]; EDXS
  delivery of fluoride into the mineral layer: allows the delivery and incorporation of fluoride ions into the remineralized layer even at low F concentrations
[1]; [4]
  Possible Mineral Formed: Only HAP
  Remineralized Layer Ca/O: 0.56 ± 0.13
[1]; EDXS, 1 hour treatment at 37° C., listed as 6. Peptide only
  Remineralized Layer Ca/P: 1.56 ± 0.12
[1]; EDXS, 1 hour treatment at 37° C., listed as Group 6
  Remineralized Layer Ca/P: 1.54±0.12
[1]; EDXS, 1 hour treatment at 37° C., listed as Group-6
  Remineralized Layer Ca/P: 1.56
[1]; listed as Group 6
  thickness of newly formed mineral layer: 10 μm
[1]; listed as Group-6
  thickness of newly formed mineral layer: > 10 μm
[1]; listed as Peptide alone
  thickness of newly formed mineral layer: 10 μm
[2]; listed as Group 6 (shADP5)
  Hardness (Vicker's microhardness): 140.6 +/− 11.3 HV10, MPa
[2]; listed as group 6
  Hardness (Vicker's microhardness): 140.6+11.3 HV10, MPa
[3]; [5]
  Elastic Modulus (nanoindentation): 58.6 ± 4.7 GPa
  Hardness (nanoindentation): 2.23 ± 0.23 GPa
[3]; [6]
  Elastic Modulus (nanoindentation): 58.6±4.7 GPa
  Hardness (nanoindentation): 2.23±0.23 GPa
[3]; [7]
  Elastic Modulus (nanoindentation): 55.0 ± 4.6 GPa
  Hardness (nanoindentation): 2.12 ± 0.21 GPa
